Measured values reported in US5830697A, “P-glycoprotein mutant resistant to cyclosporin modulation” (The Board of Trustees of the Leland Stanford Junior …, priority 1997, dated 1998).

Legend:
[1] = system: Dx/PFS cells; experiment: MTT assay, DxP subclone; format: cell-based, human
Protocol: (§1) Growth Inhibition Assay. Approximately 8000 cells per well were seeded in 96 well plates and incubated with or without drugs for 72 hr at 37° C. in an atmosphere of 5% CO2. Growth inhibition was evaluated by the MTT colorimetric assay in triplicate or quadruplicate as previously described. The absorbance was measured with a ThermoMax microplate reader (Molecular Devices, Menlo Park, Calif.). The IC50 (drug concentration resulting in 50% inhibition of MTT dye formation, compared to controls) was determined directly from semi-logarithmic dose-response curves. The doubling times of MES-SA, D×5, and D×P were determined as previously described.
(§2) Reversal of MDR by Modulators. […] The modulation ratio was obtained by comparing IC50 s in the presence and absence of modulators.
(§3) Clonal Analysis of D×P cells. Subcloning of cells was performed by limiting dilution. Both resistant and revertant clones were analyzed for the MDR phenotype, drug accumulation, and rt-PCR or heteroduplex as described above.

[2] = system: Dx/PGS cells; experiment: MTT assay, DxP subclone; format: cell-based, human
Protocol: as §1, §2, §3

[3] = system: Dx/PMS cells; experiment: MTT assay, DxP subclone; format: cell-based, human
Protocol: as §1, §2, §3

[4] = system: Dx/PAS cells; experiment: MTT assay, DxP subclone; format: cell-based, human
Protocol: as §1, §2, §3

[5] = system: Dx/PHS cells; experiment: MTT assay, DxP subclone; format: cell-based, human
Protocol: as §1, §2, §3

[6] = system: Dx/PJS cells; experiment: MTT assay, DxP subclone; format: cell-based, human
Protocol: as §1, §2, §3

[7] = system: Dx/PES cells; experiment: MTT assay, DxP subclone; format: cell-based, human
Protocol: as §1, §2, §3

[8] = system: Dx/PIS cells; experiment: MTT assay, DxP subclone; format: cell-based, human
Protocol: as §1, §2, §3

[9] = system: Dx/PDS cells; experiment: MTT assay, DxP subclone; format: cell-based, human
Protocol: as §1, §2, §3

[10] = system: Dx/PCS cells; experiment: MTT assay, DxP subclone; format: cell-based, human
Protocol: as §1, §2, §3

[11] = system: Dx/PBS cells; experiment: MTT assay, DxP subclone; format: cell-based, human
Protocol: as §1, §2, §3

[12] = system: MES-SA/DxP5002 (DxP) cells; experiment: Growth inhibition (MTT) assay, with or without MDR modulators
Protocol: Cells and Tissue Culture. […] Monolayer cultures of MES-SA cells and its variants were grown in McCoy's medium (Irvine Scientific, Santa Ana, Calif.) supplemented with 10% newborn calf serum (Gibco, Grand Island, N.Y.), 2 mM L-glutamine, and antibiotics(100 U/ml penicillin, 100 μg/ml streptomycin).
as §1, with “The IC50 (drug concentration resulting in 50% inhibition of MTT dye formation, compared to controls) was determined directly from semi-logarithmic dose-response curves.” left out
as §2

[13] = system: MES-SA/Dx5 (Dx5) cells; experiment: as above; format: cell-based, human
Protocol: (§4) Cells and Tissue Culture. Details of the development and characterization of the human cell line MES-SA and its MDR variant MES-SA/Dx5 (D×5), which were derived from sarcoma elements of a uterine mixed Mullerian tumor, are described in Harker and Sikic (1985) Cancer Research 45:3810-3815. MES-SA/DxP5002 (DxP) cells were derived from Dx5.05 cells (D×5 cells selected and maintained at a DOX concentration of 0.5 μM) by step-wise selection in the presence of increasing DOX concentrations (from 40 nM up to 0.5 μM) and a constant PSC 833 concentration at 2 μM over a one-year period. Monolayer cultures of MES-SA cells and its variants were grown in McCoy's medium (Irvine Scientific, Santa Ana, Calif.) supplemented with 10% newborn calf serum (Gibco, Grand Island, N.Y.), 2 mM L-glutamine, and antibiotics(100 U/ml penicillin, 100 μg/ml streptomycin).
as §1, §2

[14] = system: MES-SA cells; experiment: as above; format: cell-based, human; conditions: MES-SA cells
Protocol: as §4, §1, §2

COc1cccc2c1C(=O)c1c(O)c3c(c(O)c1C2=O)C[C@@](O)(C(=O)CO)C[C@@H]3O[C@H]1C[C@H](N)[C@H](O)[C@H](C)O1 [Doxorubicin]
fold resistance relative to MES-SA ([1]; + PSC): 75 fold | fold resistance relative to MES-SA ([1]; no modulator): 150 fold | fold resistance relative to MES-SA ([2]; + PSC): 7 fold | fold resistance relative to MES-SA ([2]; no modulator): 7 fold | fold resistance relative to MES-SA ([3]; + PSC): 50 fold | fold resistance relative to MES-SA ([3]; no modulator): 100 fold | fold resistance relative to MES-SA ([4]; + PSC): 51 fold | fold resistance relative to MES-SA ([4]; no modulator): 163 fold | fold resistance relative to MES-SA ([5]; + PSC): 37 fold | fold resistance relative to MES-SA ([5]; no modulator): 83 fold | fold resistance relative to MES-SA ([6]; + PSC): 75 fold | fold resistance relative to MES-SA ([6]; no modulator): 175 fold | fold resistance relative to MES-SA ([7]; + PSC): 100 fold | fold resistance relative to MES-SA ([7]; no modulator): 96 fold | fold resistance relative to MES-SA ([8]; + PSC): 3 fold | fold resistance relative to MES-SA ([8]; no modulator): 13 fold | fold resistance relative to MES-SA ([9]; + PSC): 100 fold | fold resistance relative to MES-SA ([9]; no modulator): 150 fold | fold resistance relative to MES-SA ([10]; + PSC): 23 fold | fold resistance relative to MES-SA ([10]; no modulator): 50 fold | fold resistance relative to MES-SA ([11]; + PSC): 13 fold | fold resistance relative to MES-SA ([11]; no modulator): 67 fold | Level of resistance of DxP cells to the cytotoxin compared with parental Dx5 (in words) ([12]; DxP cells): similar | Fold resistance ([12]; DxP cells, +2 μM PSC 833): 53 fold | Fold resistance ([12]; DxP cells, +3 μM cyclosporin A): 30 fold | Fold resistance ([12]; DxP cells, +6 μM Verapamil): 18 fold | Fold resistance ([12]; DxP cells, no modulator, relative to MES-SA): 77 fold | Dx5/DxP, fold of resistance difference in DxP cells compared with parental Dx5 cells ([12]; DxP vs Dx5): 1 fold | Fold resistance ([13]; +2 μM PSC 833): 1 fold | Fold resistance ([13]; +3 μM cyclosporin A): 2 fold | Fold resistance ([13]; +6 μM Verapamil): 4 fold | Fold resistance ([13]; no modulator, relative to MES-SA): 80 fold | IC50 ([14]; Homo sapiens, 72 hr MTT, read-out: IC50 of drug-sensitive MES-SA cells (values in parenthesis)): 40 nM | Fold resistance ([14]; +2 μM PSC 833): 1 fold | Fold resistance ([14]; +3 μM cyclosporin A): 0.5 fold | Fold resistance ([14]; +6 μM Verapamil): 0.5 fold | Fold resistance ([14]; no modulator, 72 hr MTT): 1 fold
